# Source: patent publication US20190136321A1, “USE OF TRANSLATIONAL PROFILING TO IDENTIFY TARGET MOLECULES FOR THERAPEUTIC TREATMENT” (The Regents of The University of California, priority 2013, published 2019)
# Like-named read-outs stand apart in the source and are kept apart here.
# What was measured:
# V600E-BRAF tumor cells = conditions: cited from earlier work
# Pten^L/L mice = assay: Pharmacological treatment of Pten^L/L mice (preclinical trial, prostate cancer); assay type: in vivo, mouse; conditions: Pten^L/L mice, RAD001 10 mg/kg daily
# Experimental: Pten^loxp/loxp and Pb-cre mice where obtained from Jackson Laboratories and Mouse Models of Human Cancers Consortium (MMHCC), respectively, and maintained in the C57BL/6 background. Mice were maintained under specific pathogen-free conditions, and experiments were performed in compliance with institutional guidelines as approved by the Institutional Animal Care and Use Committee of UCSF.
# Weight measurements were taken every 3 days to monitor for toxicity. For the 28-day study, mice were imaged via […] at day 0 and day 28 in a 14-T GE MR scanner (GE Healthcare).
# Whole mouse prostates were removed from wild-type and Pten^L/L mice, microdissected, and frozen in liquid nitrogen. Frozen tissues were subsequently manually disassociated using a biopulverizer (Biospec) and additionally processed for protein and mRNA analysis as described above.
# Prostates and lymph nodes were dissected from mice within 2 hr of the indicated treatment and fixed in 10% formalin overnight at 4° C. Tissues were subsequently dehydrated in ethanol (Sigma) at room temperature, mounted into paraffin blocks, and sectioned at […] Specimens were de-paraffinized and rehydrated using CitriSolv (Fisher) followed by serial ethanol washes. […] Sections were washed in distilled water followed by TBS washes. The sections were then incubated in 5% goat serum, 1% BSA in TBS for 1 hr at room temperature. Various primary antibodies were used, including those specific for keratin 5 (Covance), cytokeratin 8 (Abcam and Covance), YB1 (Abcam), vimentin (Abcam), MTA1 (Cell signaling), CD44 (BD Pharmingen), and the androgen receptor (Epitomics), which were diluted 1:50-1:500 in blocking solution and incubated on sections overnight at 4° C. Specimens were then washed in TBS and incubated with the appropriate Alexa 488 and 594 labeled secondary (Invitrogen) at 1:500 for 2 hr at room temperature, with the exception of YB1 which was incubated with biotinylated anti-rabbit secondary (Vector) followed by incubation with Alexa 594 labeled Streptavidin (Invitrogen). A final set of washes in TBS was completed at room temperature followed by mounting with DAPI Hardset Mounting Medium (Vector Lab). A Zeiss Spinning Disc confocal (Zeiss, CSU-X1) was used to image the sections at 40×-100×. Individual prostate cells were quantified for mean fluorescence intensity (m.f.i.) using the Axiovision (Zeiss, Release 4.8) densitometric tool.
# Mouse lymph nodes were processed as described above and stained for CK8 and androgen receptor. Lymph nodes were imaged using a Zeiss AX10 microscope. Metastases were identified and areas were measured using the Axiovision (Zeiss, Release 4.8) measurement tool.
# Immunohistochemistry was performed as described above (see “Immunofluorescence”) with the exception that immediately after antigen […] and TBS washes, specimens were incubated in 3% hydrogen peroxide in TBS followed by TBS washes. The following primary antibodies were used: phospho-AKT^S473 (Cell Signaling), phospho-rpS6^S240/244 (Cell Signaling), phospho-4EBP1^T37/46 (Cell Signaling), phospho-histone H3 (Upstate), and cleaved caspase (Cell Signaling). This was followed by TBS washes and incubation with the appropriate biotinylated secondary antibody (Vector Lab) for 30 min at room temperature. An ABC-HRP Kit (Vector Lab) was used to amplify the signal, followed by a brief incubation in hydrogen peroxide. The protein of interest was detected using DAB (Sigma). Specimens were counterstained with haematoxylin (Thermo Scientific), dehydrated with Citrisolv (Fisher), and mounted with Cytoseal XYL (Vector Lab).
# Paraffin-embedded prostate specimens were deparaffinized and rehydrated as described above (see “Immunofluorescence”), stained with haematoxylin (Thermo Scientific), and washed with water. This was followed by a brief incubation in differentiation RTU (VWR) and two washes with water followed by two 70% ethanol washes. […]
# PC3 cells = assay: Ribosome profiling and RNA-seq of PC3 cells (translational efficiency, mRNA abundance); assay type: cell-based, human;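 also: mRNA is RNA-seq average read density per codon over the coding sequence, translational efficiency is ribosome footprint over RNA-seq density, scaled so the median gene equals 1.0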
# Experimental: Given the critical role for mTOR in prostate cancer, PC3 human prostate cancer cells, in which mTOR is constitutively hyperactivated, were used to delineate translationally controlled gene expression networks upon complete or partial mTOR inhibition. Ribosome profiling was optimized to assess quantitatively ribosome occupancy genome-wide in cancer cells.
# Cells were subsequently treated with cycloheximide (100 μg ml^−1) and detergent lysis was performed in the dish. The lysate was treated with DNase and clarified, and a sample was taken for RNA-seq analysis. Lysates were subjected to ribosome footprinting by nuclease treatment. Ribosome-protected fragments were purified, and deep sequencing libraries were generated from these fragments, as well as from poly(A) mRNA purified from non-nuclease-treated lysates.
# Ribosome footprint and RNA-seq sequencing reads were aligned against a library of transcripts from the UCSC Known Genes database GRCh37/hg19. The first 25 nucleotides of each read were aligned using Bowtie and this initial alignment was then extended to encompass the full fragment-derived portion of the sequencing read while excluding the linker sequence. Read density profiles were then constructed for the canonical transcript of each gene, using only reads with 0 or 1 total mismatches between the read sequence and the reference sequence, comprised of the transcript fragment followed by the linker sequence. Footprint reads were assigned to an A site nucleotide at position +15 to +17 of the alignment, based on the total fragment length; mRNA reads were assigned to the first nucleotide of the alignment. The average read density per codon was then computed for the coding sequence of each transcript, excluding the first 15 and last 5 codons, which can display atypical ribosome accumulation.
# Average read density was used as a measure of mRNA abundance (RNA-seq reads) and of protein synthesis (ribosome profiling reads). For most analyses, genes were filtered to require at least 256 reads in the relevant RNA-seq samples. Translational efficiency was computed as the ratio of ribosome footprint read density to RNA-seq read density, scaled to normalize the translational efficiency of the median gene to 1.0 after excluding regulated genes (log2 fold-change ±1.5 after normalizing for the all-gene median). Changes in protein synthesis, mRNA abundance and translational efficiency were similarly computed as the ratio of read densities between different samples, normalized to give the median gene a ratio of 1.0. This normalization corrects for differences in the absolute number of sequencing reads obtained for different libraries.
smiles,measurement,setting,value
O=C(NOC[C@H](O)CO)c1ccc(F)c(F)c1Nc1ccc(I)cc1F [PD0325901],PNAS rna,V600E-BRAF tumor cells; gene ALF/GTF2A1L,2.7 log2 MEKi/DMSO
same,PNAS rna,V600E-BRAF tumor cells; gene ARID5A,−1.7 log2 MEKi/DMSO
same,PNAS rna,V600E-BRAF tumor cells; gene B4GALT6,−1.7 log2 MEKi/DMSO
same,PNAS rna,V600E-BRAF tumor cells; gene BXDC2/BRIX1,−1.2 log2 MEKi/DMSO
same,PNAS rna,V600E-BRAF tumor cells; gene BYSL,−1.2 log2 MEKi/DMSO
same,PNAS rna,V600E-BRAF tumor cells; gene CCND1,−2.2 log2 MEKi/DMSO
same,PNAS rna,V600E-BRAF tumor cells; gene CD3EAP,−1.4 log2 MEKi/DMSO
same,PNAS rna,V600E-BRAF tumor cells; gene CHSY1,−1.3 log2 MEKi/DMSO
same,PNAS rna,V600E-BRAF tumor cells; gene DDX21,−1.1 log2 MEKi/DMSO
same,PNAS rna,V600E-BRAF tumor cells; gene DUSP4,−2.2 log2 MEKi/DMSO
same,PNAS rna,V600E-BRAF tumor cells; gene DUSP6,−2.6 log2 MEKi/DMSO
same,PNAS rna,V600E-BRAF tumor cells; gene EGR1,−2.1 log2 MEKi/DMSO
same,PNAS rna,V600E-BRAF tumor cells; gene ELOVL6,−1.5 log2 MEKi/DMSO
same,PNAS rna,V600E-BRAF tumor cells; gene ETV1,−2.6 log2 MEKi/DMSO
same,PNAS rna,V600E-BRAF tumor cells; gene ETV4,−2.2 log2 MEKi/DMSO
same,PNAS rna,V600E-BRAF tumor cells; gene ETV5,−1.7 log2 MEKi/DMSO
same,PNAS rna,V600E-BRAF tumor cells; gene FLJ10534/TSR1,−1.1 log2 MEKi/DMSO
same,PNAS rna,V600E-BRAF tumor cells; gene FOS,−3.4 log2 MEKi/DMSO
same,PNAS rna,V600E-BRAF tumor cells; gene FOSL1,−4.2 log2 MEKi/DMSO
same,PNAS rna,V600E-BRAF tumor cells; gene GEMIN4,−1.2 log2 MEKi/DMSO
same,PNAS rna,V600E-BRAF tumor cells; gene GNL3,−1.0 log2 MEKi/DMSO
same,PNAS rna,V600E-BRAF tumor cells; gene GPR3,−2.1 log2 MEKi/DMSO
same,PNAS rna,V600E-BRAF tumor cells; gene GTPBP4,−1.1 log2 MEKi/DMSO
same,PNAS rna,V600E-BRAF tumor cells; gene HMGA2,−1.6 log2 MEKi/DMSO
same,PNAS rna,V600E-BRAF tumor cells; gene HSPC111/NOP16,−1.3 log2 MEKi/DMSO
same,PNAS rna,V600E-BRAF tumor cells; gene HYDIN,2.1 log2 MEKi/DMSO
same,PNAS rna,V600E-BRAF tumor cells; gene IER3,−3.3 log2 MEKi/DMSO
same,PNAS rna,V600E-BRAF tumor cells; gene IL8,−2.5 log2 MEKi/DMSO
same,PNAS rna,V600E-BRAF tumor cells; gene KIR3DL2,1.7 log2 MEKi/DMSO
same,PNAS rna,V600E-BRAF tumor cells; gene LIF,−3.2 log2 MEKi/DMSO
same,PNAS rna,V600E-BRAF tumor cells; gene LNK/SH2B3,−2.0 log2 MEKi/DMSO
same,PNAS rna,V600E-BRAF tumor cells; gene MAFF,−2.7 log2 MEKi/DMSO
same,PNAS rna,V600E-BRAF tumor cells; gene MAP2K3,−1.5 log2 MEKi/DMSO
same,PNAS rna,V600E-BRAF tumor cells; gene MYC,−2.4 log2 MEKi/DMSO
same,PNAS rna,V600E-BRAF tumor cells; gene PHLDA2,−2.2 log2 MEKi/DMSO
same,PNAS rna,V600E-BRAF tumor cells; gene PLK3,−2.3 log2 MEKi/DMSO
same,PNAS rna,V600E-BRAF tumor cells; gene POLR1C,−1.0 log2 MEKi/DMSO
same,PNAS rna,V600E-BRAF tumor cells; gene POLR3G,−1.0 log2 MEKi/DMSO
same,PNAS rna,V600E-BRAF tumor cells; gene PPAN,−1.2 log2 MEKi/DMSO
same,PNAS rna,V600E-BRAF tumor cells; gene PPAT,−1.1 log2 MEKi/DMSO
same,PNAS rna,V600E-BRAF tumor cells; gene PYCRL,−2.6 log2 MEKi/DMSO
same,PNAS rna,V600E-BRAF tumor cells; gene RRS1,−1.8 log2 MEKi/DMSO
same,PNAS rna,V600E-BRAF tumor cells; gene SEMA6A,2.1 log2 MEKi/DMSO
same,PNAS rna,V600E-BRAF tumor cells; gene SLC1A5,−1.2 log2 MEKi/DMSO
same,PNAS rna,V600E-BRAF tumor cells; gene SLC4A7,−1.6 log2 MEKi/DMSO
same,PNAS rna,V600E-BRAF tumor cells; gene SPRED2,−1.0 log2 MEKi/DMSO
same,PNAS rna,V600E-BRAF tumor cells; gene SPRY2,−4.0 log2 MEKi/DMSO
same,PNAS rna,V600E-BRAF tumor cells; gene SPRY4,−2.6 log2 MEKi/DMSO
same,PNAS rna,V600E-BRAF tumor cells; gene TNC,−2.5 log2 MEKi/DMSO
same,PNAS rna,V600E-BRAF tumor cells; gene TNFRSF12A,−1.5 log2 MEKi/DMSO
same,PNAS rna,V600E-BRAF tumor cells; gene WDR3,−1.1 log2 MEKi/DMSO
same,PNAS rna,V600E-BRAF tumor cells; gene YRDC,−1.2 log2 MEKi/DMSO
CO[C@H]1C[C@@H]2CC[C@@H](C)[C@@](O)(O2)C(=O)C(=O)N2CCCC[C@H]2C(=O)O[C@H]([C@H](C)C[C@@H]2CC[C@@H](OCCO)[C@H](OC)C2)CC(=O)[C@H](C)/C=C(\C)[C@@H](O)[C@@H](OC)C(=O)[C@H](C)C[C@H](C)/C=C/C=C/C=C/1C [RAD001],regression of PIN lesions,Pten^L/L mice; 28 days,only partial regression
same,proliferation (phospho-histone H3),Pten^L/L mice; ATP site inhibitor of mTOR 1 mg/kg daily,limited decrease
CO[C@H]1C[C@@H]2CC[C@@H](C)[C@@](O)(O2)C(=O)C(=O)N2CCCC[C@H]2C(=O)O[C@H]([C@H](C)C[C@@H]2CC[C@@H](O)[C@H](OC)C2)CC(=O)[C@H](C)/C=C(\C)[C@@H](O)[C@@H](OC)C(=O)[C@H](C)C[C@H](C)/C=C/C=C/C=C/1C [rapamycin],TrlEff,PC3 cells; gene ACTG1,−0.07
same,mRNA,PC3 cells; gene ACTG1,0.02
same,mRNA,PC3 cells; gene AGRN,0.01
same,mRNA,PC3 cells; gene AHCY,0.20
same,mRNA,PC3 cells; gene ALKBH7,0.06
same,TrlEff,PC3 cells; gene AP2A1,−0.04
same,mRNA,PC3 cells; gene AP2A1,0.09
same,TrlEff,PC3 cells; gene ARD1A,0.01
same,mRNA,PC3 cells; gene ARD1A,−0.04
same,TrlEff,PC3 cells; gene C21orf66,−0.09
same,mRNA,PC3 cells; gene C21orf66,−0.30
same,TrlEff,PC3 cells; gene CIRBP,0.10
same,mRNA,PC3 cells; gene CLPTM1,0.07
same,mRNA,PC3 cells; gene COL6A2,−0.08
same,mRNA,PC3 cells; gene ECSIT,−0.04
same,TrlEff,PC3 cells; gene EEF1A2,−0.03
same,mRNA,PC3 cells; gene EEF1A2,0.03
same,TrlEff,PC3 cells; gene EVPL,0.30
same,mRNA,PC3 cells; gene EVPL,−0.08
same,mRNA,PC3 cells; gene FAM128B,0.06
same,mRNA,PC3 cells; gene IPO7,0.20
same,TrlEff,PC3 cells; gene MTA1,−0.05
same,mRNA,PC3 cells; gene MTA1,0.00
same,mRNA,PC3 cells; gene NCLN,−0.05
same,TrlEff,PC3 cells; gene PABPC4,−0.80
same,TrlEff,PC3 cells; gene PACS1,0.04
same,mRNA,PC3 cells; gene PACS1,0.07
same,TrlEff,PC3 cells; gene PGLS,0.20
same,mRNA,PC3 cells; gene PGLS,0.03
same,mRNA,PC3 cells; gene PGM1,0.40
same,mRNA,PC3 cells; gene RABGGTB,−0.20
same,mRNA,PC3 cells; gene RPL6,0.09
same,TrlEff,PC3 cells; gene RPL8,−0.40
same,TrlEff,PC3 cells; gene RPL9,−1.00
same,mRNA,PC3 cells; gene RPL10,0.09
same,mRNA,PC3 cells; gene RPL11,0.09
same,mRNA,PC3 cells; gene RPL12,0.07
same,mRNA,PC3 cells; gene RPL14,0.07
same,mRNA,PC3 cells; gene RPL17,0.05
same,mRNA,PC3 cells; gene RPL18,0.08
same,mRNA,PC3 cells; gene RPL22,0.08
same,mRNA,PC3 cells; gene RPL23,0.09
same,mRNA,PC3 cells; gene RPL27,0.05
same,mRNA,PC3 cells; gene RPL27A,0.06
same,TrlEff,PC3 cells; gene RPL29,−0.50
same,mRNA,PC3 cells; gene RPL29,0.10
same,mRNA,PC3 cells; gene RPL31,−0.02
same,mRNA,PC3 cells; gene RPL36,0.09
same,mRNA,PC3 cells; gene RPL37A,0.08
same,mRNA,PC3 cells; gene RPL41,0.04
same,mRNA,PC3 cells; gene RPS2,0.07
same,mRNA,PC3 cells; gene RPS8,0.09
same,TrlEff,PC3 cells; gene RPS9,−0.60
same,mRNA,PC3 cells; gene RPS9,0.10
same,mRNA,PC3 cells; gene RPS13,0.07
same,TrlEff,PC3 cells; gene RPS14,−0.60
same,mRNA,PC3 cells; gene RPS14,0.10
same,TrlEff,PC3 cells; gene RPS15,0.03
same,mRNA,PC3 cells; gene RPS15,−0.01
same,mRNA,PC3 cells; gene RPS15A,0.07
same,TrlEff,PC3 cells; gene RPS21,−0.60
same,mRNA,PC3 cells; gene RPS21,−0.01
same,mRNA,PC3 cells; gene RPS25,0.04
same,mRNA,PC3 cells; gene RPS27,0.10
same,TrlEff,PC3 cells; gene RPS28,−0.80
same,mRNA,PC3 cells; gene RPS28,0.01
same,mRNA,PC3 cells; gene RPS29,−0.01
same,TrlEff,PC3 cells; gene SLC25A5,−0.30
same,mRNA,PC3 cells; gene TKT,0.02
same,TrlEff,PC3 cells; gene VIM,−0.40
